Assay results published in patent publication EP3827825A1, “USE OF 3, 4-DIARYLPYRAZOLES AS ANTIBACTERIAL AGENTS” (Wageningen Universiteit, priority 2019, dated 2021).
≈ marks a conversion by molar mass, not a printed value. Where two headings read alike, the source gives them in different places.

How the values were obtained:
S. aureus Newman = assay: Minimal inhibitory concentration (MIC), double-dilution in broth, OD600; type: cell-based, Staphylococcus aureus Newman; conditions: unit assumed
Protocol: (§1) In short, a stock solution of 5 mg/mL of HKIs in DMSO was made. This stock was diluted to 50 µg/mL in broth in a 96 well plate. Dilutions were made (factor 2) directly in the plate with a multi-channel pipet. Bacteria cultured in suspension overnight were then added to the plate (except negative control) and the plate was incubated for 24 hours. After 24 hours the OD600 was measured using a spectrophotometer. A positive control (with bacteria, without HKI) was also measured on each plate.
Bacterial strains used in this study for antibacterial susceptibility testing (Table S2) were propagated using standard microbiological procedures. Minimal inhibitory concentrations (MICs) were determined following a standard double-dilution method (42), 73. […] For M. marinum, MICs were determined in Middlebrook 7H9 broth (Difco) and MICs were determined after 3 days incubation at 30 °C.
(§2) Grow the bacterial colonies to be tested from single colonies on an agar plate in LB broth or suitable bacterial growth medium overnight at 37°C. Prepare a 5 mg/mL stock solution of compounds to be tested in DMSO. One 96-well plate per bacterial strain was prepared. First, put 50 uL of medium to each well. Add 48 µL of medium to all wells in row A. Pipet 2 µL of antimicrobial master stock into the top well (row A). Beware, the antimicrobial concentration will be diluted 2x after adding the bacterial culture. Total volume in each well will be 100 µL. In A11, pipet 2 µL of DMSO. Make a serial dilution from row A to row H, pipetting 50 µL from the previous row into the new one. Mix well by pipetting up and down. Discard the last 50 µL so that there is 50 µl in each well In a clean, new plastic pipetting cup, dilute the overnight bacterial culture 100 times. Add 100 µL of bacterial overnight culture to 9900 µL of medium. Mix the suspension well. Once the serial dilutions are complete for all antimicrobial compounds, add 50 µL of diluted overnight bacterial culture to each well (except column 12). Mix by pipetting or put the plate on the shaker. Per 2 plates, close with parafilm around the edges and place in the incubator overnight. After overnight culturing, measure bacterial growth on the SpectraMax. The lowest concentration where no growth is observed is the MIC. To determine the MIB pipette 5 µL from each well of the 96 well plate where now growth was observed on to an LB agar plate, without antimicrobial. Put the plates in the incubator to grow overnight. The minimal concentration where no growth can be seen on the agar plate is the MBC.

S. suis = assay: as above; type: cell-based, Streptococcus suis; conditions: unit assumed
Protocol: as §1, with “each plate. The MICs were not determined in duplo/triplicate in the same experiment, however, the MICs of several HKIs were measured in different experiments and no major differences (max. 1x dilution) were found in the MICs between the experiments.” for “each plate.”
(§3) Bacterial strains used in this study for antibacterial susceptibility testing (Table S2) were propagated using standard microbiological procedures. Minimal inhibitory concentrations (MICs) were determined following a standard double-dilution method (42), 73. MICs were recorded as the lowest concentration of the compound where no visible growth was observed. After plating the dilutions around the MIC or growing them in fresh MH media, minimal bactericidal concentration (MBC) was recorded as the lowest concentration of the compound at which no colonies were formed or no growth was observed, respectively. For M. marinum, MICs were determined in Middlebrook 7H9 broth (Difco) and MICs were determined after 3 days incubation at 30 °C.
as §2

P. multocida = assay: as above; type: cell-based, Pasteurella multocida; conditions: unit assumed
Protocol: as §1, with “each plate. The MICs were not determined in duplo/triplicate in the same experiment, however, the MICs of several HKIs were measured in different experiments and no major differences (max. 1x dilution) were found in the MICs between the experiments.” for “each plate.”
as §3, §2

M. marinum = assay: Minimal inhibitory concentration (MIC), Middlebrook 7H9 broth, 3 days at 30 °C; type: cell-based, Mycobacterium marinum; conditions: unit assumed
Protocol: as §1, with “each plate. The MICs were not determined in duplo/triplicate in the same experiment, however, the MICs of several HKIs were measured in different experiments and no major differences (max. 1x dilution) were found in the MICs between the experiments.” for “each plate.”
as §3, §2

E. coli JW5503 = type: cell-based, Escherichia coli; conditions: unit assumed
Protocol: as §1, with “each plate. The MICs were not determined in duplo/triplicate in the same experiment, however, the MICs of several HKIs were measured in different experiments and no major differences (max. 1x dilution) were found in the MICs between the experiments.” for “each plate.”
as §3, §2

E. faecium Van A = assay: Minimal inhibitory concentration (MIC), double-dilution in broth, OD600; type: cell-based, Enterococcus faecium; conditions: unit assumed
Protocol: as §1, with “each plate. The MICs were not determined in duplo/triplicate in the same experiment, however, the MICs of several HKIs were measured in different experiments and no major differences (max. 1x dilution) were found in the MICs between the experiments.” for “each plate.”
as §3, §2

NRK-52E = assay: Cell toxicity, Alamar blue assay, 24 hours exposure; type: cell-based; conditions: Rattus norvegicus
Protocol: Toxicity was primarily determined by measuring cytotoxicity with the Alamar blue assay. In short, cells (HEK293, NRK-52E and Caco-2) were plated in 96-well plates and cultured overnight. HKI compounds were diluted to concentrations ranging from 0.39 to 500 µg/mL in serum-free medium and added to the cells.
After exposure, cells were incubated for 24 hours. Experiments were mostly performed by single measurement. […] After 24 hours HKIs were removed from the cells and Alamar blue was added, incubated for 45 minutes and fluorescence was measured on a spectrophotometer. Alamar blue measures the conversion of blue, low fluorescent resazurin into high fluorescent pink resorufin. This conversion can only be made in viable mitochondria in viable cells and therefore this dye provides a measure for cytotoxicity.

[1] = read-out: IC50 NRK-52E (50 mg/mL stock)

Row | Structure (SMILES) | MIC S. aureus Newman (S. aureus Newman) [µg/mL] | MIC S. suis (S. suis) [µg/mL] | MIC P. multocida (P. multocida) [µg/mL] | MIC M. marinum (M. marinum) [µg/mL] | MIC E. coli JW5503 (E. coli JW5503) [µg/mL] | MIC E. faecium Van A (E. faecium Van A) [µg/mL] | IC50 (NRK-52E; [1]) [µg/mL] | IC50 (NRK-52E; read-out: IC50 NRK-52E (50 mg/mL stock), 50 mg/mL stock) [µg/mL]
1 | Cc1[nH]nc(-c2ccc(O)cc2O)c1-c1ccc(Br)cc1 [May-1, 4-[4-(4-bromophenyl)-5-methyl-1∼{H}-pyrazol-3-yl]resorcinol] | 12.5 (≈ 36.2 µM) | 6.25 (≈ 18.1 µM) | 12.5 (≈ 36.2 µM) | 50 (≈ 145 µM) | 3.13 (≈ 9.07 µM) | 12.5 (≈ 36.2 µM) | 5.95 (≈ 17.2 µM) | –
2 | COc1ccc(-c2c(C(F)(F)F)n[nH]c2-c2ccc(O)cc2O)cc1OC [May-2, 4-[4-(3,4-dimethoxyphenyl)-5-(trifluoromethyl)-1∼{H}-pyrazol-3-yl]resorcinol] | 50 (≈ 131 µM) | 50 (≈ 131 µM) | > 50 | > 50 | – | 50 (≈ 131 µM) | 13.9 (≈ 36.6 µM) | –
3 | COc1ccc(-c2[nH]nc(C(F)(F)F)c2-c2ccc(OC)c(OC)c2)c(O)c1 [May-5, 2-[4-(3,4-dimethoxyphenyl)-5-(trifluoromethyl)-1∼{H}-pyrazol-3-yl]-5-methoxy-phenol] | 25 (≈ 63.4 µM) | 50 (≈ 127 µM) | > 50 | > 50 | – | – | 6.11 (≈ 15.5 µM) | –
4 | COc1ccc(-c2c(-c3ccc(OC)cc3O)n[nH]c2C(F)(F)F)cc1 [May-8] | 12.5 (≈ 34.3 µM) | 12.5 (≈ 34.3 µM) | > 50 | 50 (≈ 137 µM) | 3.13 (≈ 8.59 µM) | – | 2.64 (≈ 7.25 µM) | –
5 | COc1ccc(-c2c(-c3ccc(O)cc3O)n[nH]c2C(F)(F)F)cc1 [May-9, 4-[4-(4-methoxyphenyl)-5-(trifluoromethyl)-1∼{H}-pyrazol-3-yl]resorcinol] | 12.5 (≈ 35.7 µM) | 12.5 (≈ 35.7 µM) | 50 (≈ 143 µM) | > 50 | 3.13 (≈ 8.94 µM) | 25 (≈ 71.4 µM) | ~3.15 (≈ 8.99 µM) | –
6 | Oc1ccc(-c2[nH]nc(C(F)(F)F)c2-c2ccccc2)c(O)c1 [May-10, 4-[4-phenyl-5-(trifluoromethyl)-1∼{H}-pyrazol-3-yl]resorcinol] | 6.25 (≈ 19.5 µM) | 12.5 (≈ 39 µM) | 25 (≈ 78.1 µM) | 50 (≈ 156 µM) | – | 12.5 (≈ 39 µM) | ~3.61 (≈ 11.3 µM) | –
7 | COc1ccccc1-c1c(-c2ccc(O)cc2O)n[nH]c1C(F)(F)F [May-13, 4-[4-(2-methoxyphenyl)-5-(trifluoromethyl)-1∼{H}-pyrazol-3-yl]resorcinol] | 25 (≈ 71.4 µM) | 25 (≈ 71.4 µM) | 50 (≈ 143 µM) | > 50 | – | 50 (≈ 143 µM) | 8.06 (≈ 23 µM) | –
8 | COc1ccc(-c2c(-c3ccc(OC)c(C)c3O)n[nH]c2C(F)(F)F)cc1 [Sep-1, 3-methoxy-6-[4-(4-methoxyphenyl)-5-(trifluoromethyl)-1∼{H}-pyrazol-3-yl]-2-methyl-phenol] | 25 (≈ 66.1 µM) | 50 (≈ 132 µM) | > 50 | > 50 | 6.25 (≈ 16.5 µM) | 50 (≈ 132 µM) | 23.2 (≈ 61.3 µM) | –
9 | CCOc1ccc(-c2n[nH]c(C(F)(F)F)c2-c2ccccc2)c(O)c1C [Sep-3, 3-ethoxy-2-methyl-6-[4-phenyl-5-(trifluoromethyl)-1∼{H}-pyrazol-3-yl]phenol] | 12.5 (≈ 34.5 µM) | 25 (≈ 69 µM) | > 50 | > 50 | 6.25 (≈ 17.2 µM) | 25 (≈ 69 µM) | ~15.5 (≈ 42.8 µM) | –
10 | Cc1ccc(COc2ccc(-c3n[nH]c(C(F)(F)F)c3-c3cccc4ccccc34)c(O)c2)cc1 [Sep-4, 5-(4-methylbenzyl)oxy-2-[4-(1-naphthyl)-5-(trifluoromethyl)-1∼{H}-pyrazol-3-yl]phenol] | 3.13 (≈ 6.6 µM) | 25 (≈ 52.7 µM) | > 50 | 50 (≈ 105 µM) | > 50 | 25 (≈ 52.7 µM) | 13.9 (≈ 29.2 µM) | –
11 | CCCCCOc1ccc(-c2n[nH]c(C(F)(F)F)c2-c2ccccc2Cl)c(O)c1 [Sep-5, 2-[4-(2-chlorophenyl)-5-(trifluoromethyl)-1∼{H}-pyrazol-3-yl]-5-pentoxyphenol] | 3.13 (≈ 7.37 µM) | 12.5 (≈ 29.4 µM) | > 50 | 50 (≈ 118 µM) | > 50 | 12.5 (≈ 29.4 µM) | ~7.46 (≈ 17.6 µM) | –
12 | COc1ccc(-c2c(C(F)(F)F)n[nH]c2-c2ccc(OCc3ccc([N+](=O)[O-])cc3)cc2O)cc1 [Sep-6, 2-[4-(4-methoxyphenyl)-5-(trifluoromethyl)-1∼{H}-pyrazol-3-yl]-5-(4-nitrobenzyl)oxyphenol] | 3.13 (≈ 6.45 µM) | 12.5 (≈ 25.8 µM) | > 50 | 50 (≈ 103 µM) | 12.5 (≈ 25.8 µM) | 6.25 (≈ 12.9 µM) | 8.42 (≈ 17.3 µM) | –
13 | C=C(C)COc1ccc(-c2[nH]nc(C(F)(F)F)c2-c2ccc(OC)cc2)c(O)c1 [Sep-7, 2-[4-(4-methoxyphenyl)-5-(trifluoromethyl)-1∼{H}-pyrazol-3-yl]-5-(2-methylallyloxy)phenol] | 6.25 (≈ 15.5 µM) | 12.5 (≈ 30.9 µM) | > 50 | > 50 | 6.25 (≈ 15.5 µM) | 12.5 (≈ 30.9 µM) | ~7.49 (≈ 18.5 µM) | –
14 | COc1ccc(-c2c(C(F)(F)F)n[nH]c2-c2ccc(OCc3ccccc3F)cc2O)cc1 [Sep-8, 5-(2-fluorobenzyl)oxy-2-[4-(4-methoxyphenyl)-5-(trifluoromethyl)-1∼{H}-pyrazol-3-yl]phenol] | 3.13 (≈ 6.83 µM) | 12.5 (≈ 27.3 µM) | > 50 | > 50 | 50 (≈ 109 µM) | 6.25 (≈ 13.6 µM) | ~14.5 (≈ 31.7 µM) | –
15 | Oc1cc(OCc2c(F)cccc2Cl)ccc1-c1[nH]nc(C(F)(F)F)c1-c1ccc(Cl)cc1 [Sep-11, 5-(2-chloro-6-fluorobenzyl)oxy-2-[4-(4-chlorophenyl)-5-(trifluoromethyl)-1∼{H}-pyrazol-3-yl]phenol] | 3.13 (≈ 6.29 µM) | 12.5 (≈ 25.1 µM) | > 50 | > 50 | > 50 | 6.25 (≈ 12.6 µM) | 11.8 (≈ 23.8 µM) | –
16 | COc1ccc(-c2n[nH]c(C)c2-c2ccc(Cl)cc2)c(O)c1 [Sep-21, 2-[4-(4-chlorophenyl)-5-methyl-1∼{H}-pyrazol-3-yl]-5-methoxy-phenol] | 50 (≈ 159 µM) | > 50 | > 50 | 50 (≈ 159 µM) | – | 50 (≈ 159 µM) | 18.2 (≈ 57.9 µM) | –
17 | COc1ccccc1-c1c(-c2ccc(OCC(=O)NN)cc2O)n[nH]c1C(F)(F)F [Sep-26, 2-[3-hydroxy-4-[4-(2-methoxyphenyl)-5-(trifluoromethyl)-1∼{H}-pyrazol-3-yl]phenoxy]acetohy drazide] | > 50 | > 50 | > 50 | > 50 | – | 25 (≈ 59.2 µM) | – | 194 (≈ 461 µM)
